Experimental findings from PubChem BioAssay (NCI) are described below.

“And” between values parts separate entries of the source, which are not always exact repeats. Equal values may be shown once.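 Following 48 hours of exposure in 96-well plates, responses at five concentrations were used to interpolate endpoints linearly. GI50 = concentration required for 50% inhibition of growth. TGI denotes the concentration required for complete inhibition of growth.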 Where only a bound is given, the exact number is not on record here.

For the first experiment, the system named is BT-549 breast. Put plainly: NCI tumour cell line growth inhibition, 48 h.
The compound `C[C@@H]1C[C@H](O)[C@]2(O)O[C@@H]3C[C@@]4(C=O)[C@@H](CC=C5[C@@H]4CC[C@]4(C)[C@@H](C6=CC(=O)OC6)CC[C@]54O)C[C@H]3O[C@@H]2O1` displayed a TGI of 0.0508 µM.
On the same count and under the same terms, the value for `Cc1nc2cc(C(F)(F)F)ccc2[nH]c1=O` was greater than 100 µM.
On to `N#CSCc1cccc(Nc2cc(=O)[nH]c(=O)[nH]2)c1`, for which the TGI is greater than 100 µM.
On the same count and under the same terms, the value for `CC(C)/C(Cl)=N\OC(=O)NNc1ccccc1` was greater than 100 µM; that for `Nc1ncnc2c1ncn2C(=O)NC12CC3CC(CC(C3)C1)C2` was greater than 100 µM.
In the case of `CC(C)(CO)N1C(=O)c2ccccc2C1(O)c1ccc(Cl)cc1` (stereo not given), the TGI is greater than 100 µM.
Compound `COc1cccc(-c2nc(-c3cnccn3)n(Cc3ccccc3)n2)c1` came in with a TGI greater than 100 µM.
Compound `CC(=O)/C(=C/n1c(=S)sc2ccccc21)C(=O)Nc1ccccc1C` displayed a TGI greater than 100 µM.
With `Cc1ccc(C(=O)Nc2ccc(CP(=O)(O)O)cc2)cc1NC(=O)c1cccc(NC(=O)Nc2cccc(C(=O)Nc3cc(C(=O)Nc4ccc(CP(=O)(O)O)cc4)ccc3C)c2)c1`, the TGI is greater than 100 µM.
Still for that read-out and setting: the same measure for `CCOC(=O)C1CC(O)C(=O)N1C` (stereo not given): greater than 100 µM; for `CC(=O)CC(=O)c1cc2c(=O)oc(C)cc2oc1=O`: greater than 37.5 µM.

Another experiment has as its system HOP-92 NSCLC. Put plainly: NCI tumour cell line growth inhibition, 48 h.
On to `C=CCCCC12CCCc3cccc(c31)NC2=O` (stereo not given), for which the TGI was 31.8 µM.
In turn, `C[C@@H]1C[C@H](O)[C@]2(O)O[C@@H]3C[C@@]4(C=O)[C@@H](CC=C5[C@@H]4CC[C@]4(C)[C@@H](C6=CC(=O)OC6)CC[C@]54O)C[C@H]3O[C@@H]2O1` came in with a TGI of 0.174 µM.
For the compound `Cc1nc2cc(C(F)(F)F)ccc2[nH]c1=O`, the TGI is greater than 100 µM.
Turning to `N#CSCc1cccc(Nc2cc(=O)[nH]c(=O)[nH]2)c1`, the TGI is 85.7 µM.
In the case of `O=C1C(Cl)N(c2ccccc2)C1c1c[nH]c2ccccc12` (stereo not given), the TGI was greater than 100 µM.
Turning to `CC(C)/C(Cl)=N\OC(=O)NNc1ccccc1`, the TGI amounted to 35.3 µM.
Compound `Cc1nc2nnc(C)n2c2c1C(=O)Nc1ccccc1N2` returned a TGI greater than 100 µM.
Compound `O=C(OCc1ccccc1)OOC(=O)OCc1ccccc1` returned a TGI greater than 100 µM.
With `O=C1OC[C@@H]2Cc3c([nH]c4ccccc34)[C@@H](c3ccc(O)cc3)N12`, the TGI is greater than 100 µM.
The compound `Nc1ncnc2c1ncn2C(=O)NC12CC3CC(CC(C3)C1)C2` showed a TGI greater than 100 µM.
`CN1CN(c2ccccc2)C2(CCN(CCCC3(c4cccs4)OCCO3)CC2)C1=O` gave a TGI greater than 100 µM.
For the compound `COc1cc([C@@H]2c3cc4c(cc3C[C@H]3COC(=O)[C@@H]32)OCO4)cc(OC)c1OC`, the GI50 is 0.00752 µM.
`Cc1nc2ccc([N+](=O)[O-])cc2c(=O)n1C(=S)Nc1cccc(Cl)c1` yielded a TGI of 25.6 µM.
The compound `COc1cccc(-c2nc(-c3cnccn3)n(Cc3ccccc3)n2)c1` had a TGI of 81.1 µM.
For the compound `CC(=O)/C(=C/n1c(=S)sc2ccccc21)C(=O)Nc1ccccc1C`, the TGI is greater than 100 µM.
`O=C(CCc1ccc(O)cc1)c1c(O)cc(O)cc1OC1OC(CO)C(O)C(O)C1O` (stereo not given) came in with a TGI greater than 100 µM.
Turning to `CC(C)=CC1C(C(=O)O)C1(C)C` (stereo not given), the TGI is greater than 750 µM.
`CCOC(=O)C1CC(O)C(=O)N1C` (stereo not given): the TGI was greater than 100 µM.

For the next experiment, the system named is HS 578T breast. Put plainly: NCI tumour cell line growth inhibition, 48 h.
As for `C[C@@H]1C[C@H](O)[C@]2(O)O[C@@H]3C[C@@]4(C=O)[C@@H](CC=C5[C@@H]4CC[C@]4(C)[C@@H](C6=CC(=O)OC6)CC[C@]54O)C[C@H]3O[C@@H]2O1`, the TGI came to 0.191 µM.
In turn, `Cc1nc2cc(C(F)(F)F)ccc2[nH]c1=O` gave a TGI greater than 100 µM.
With `N#CSCc1cccc(Nc2cc(=O)[nH]c(=O)[nH]2)c1`, the TGI is greater than 100 µM.
For `CC(C)/C(Cl)=N\OC(=O)NNc1ccccc1`, the TGI was greater than 100 µM.
The compound `CN(C)c1ccc(/C(Br)=C2\OC(=O)c3ccccc32)cc1` displayed a TGI greater than 100 µM.
For the compound `O=C1OC[C@@H]2Cc3c([nH]c4ccccc34)[C@@H](c3ccc(O)cc3)N12`, the TGI was greater than 100 µM.
Still for that read-out and setting: the same measure for `Nc1ncnc2c1ncn2C(=O)NC12CC3CC(CC(C3)C1)C2`: greater than 100 µM; for `CC1=C2c3ccccc3N(C(=O)/C=C/C(=O)O)[C@H]2[C@H]2C(=O)OC(=O)[C@H]2C1`: greater than 10 µM.
Turning to `CC(C)(CO)N1C(=O)c2ccccc2C1(O)c1ccc(Cl)cc1` (stereo not given), the TGI was greater than 100 µM.
The compound `CN1CN(c2ccccc2)C2(CCN(CCCC3(c4cccs4)OCCO3)CC2)C1=O` gave a TGI greater than 100 µM.
`COc1cc([C@@H]2c3cc4c(cc3C[C@H]3COC(=O)[C@@H]32)OCO4)cc(OC)c1OC` came in with a TGI of 0.00715 µM.
The compound `Cc1nc2ccc([N+](=O)[O-])cc2c(=O)n1C(=S)Nc1cccc(Cl)c1` showed a TGI of 72.4 µM.
For the compound `O=C(/C=C/c1cccs1)c1ccc(Cl)cc1`, the TGI was greater than 100 µM.
Same read-out and setting: the value for `N#Cc1c(OCCF)c2ccccc2n2c1nc1ccccc12` was greater than 100 µM; that for `Cc1ccc(C(=O)Nc2ccc(CP(=O)(O)O)cc2)cc1NC(=O)c1cccc(NC(=O)Nc2cccc(C(=O)Nc3cc(C(=O)Nc4ccc(CP(=O)(O)O)cc4)ccc3C)c2)c1` was greater than 100 µM; that for `O=C(CCc1ccc(O)cc1)c1c(O)cc(O)cc1OC1OC(CO)C(O)C(O)C1O` (stereo not given) was greater than 100 µM.
Still for that read-out and setting: the same measure for `COc1cccc(C2c3cc4c(cc3OC(N3CCCC3)C2C)OCO4)c1OC` (stereo not given): 11.1 µM.

Another experiment has as its system HT29 colon. Nature of the experiment: NCI tumour cell line growth inhibition, 48 h.
In the case of `C[C@@H]1C[C@H](O)[C@]2(O)O[C@@H]3C[C@@]4(C=O)[C@@H](CC=C5[C@@H]4CC[C@]4(C)[C@@H](C6=CC(=O)OC6)CC[C@]54O)C[C@H]3O[C@@H]2O1`, the TGI was 0.25 µM.
`Cc1nc2cc(C(F)(F)F)ccc2[nH]c1=O` displayed a TGI greater than 100 µM.
In turn, `N#CSCc1cccc(Nc2cc(=O)[nH]c(=O)[nH]2)c1` showed a TGI greater than 100 µM.
The same measure, in the same setting: the value for `O=C1C(Cl)N(c2ccccc2)C1c1c[nH]c2ccccc12` (stereo not given) was greater than 100 µM.
In turn, `CC(C)/C(Cl)=N\OC(=O)NNc1ccccc1` returned a TGI greater than 100 µM.
On the same count and under the same terms, the value for `Cc1nc2nnc(C)n2c2c1C(=O)Nc1ccccc1N2` was greater than 100 µM; that for `O=C(OCc1ccccc1)OOC(=O)OCc1ccccc1` was greater than 100 µM.
On the same count and under the same terms, the value for `CN(C)c1ccc(/C(Br)=C2\OC(=O)c3ccccc32)cc1` was greater than 100 µM; that for `O=C1OC[C@@H]2Cc3c([nH]c4ccccc34)[C@@H](c3ccc(O)cc3)N12` was 98.4 µM.
As to `Nc1ncnc2c1ncn2C(=O)NC12CC3CC(CC(C3)C1)C2`, the TGI is greater than 100 µM.
Same read-out and setting: the value for `CC1=C2c3ccccc3N(C(=O)/C=C/C(=O)O)[C@H]2[C@H]2C(=O)OC(=O)[C@H]2C1` was greater than 10 µM.
As for `CC(C)(CO)N1C(=O)c2ccccc2C1(O)c1ccc(Cl)cc1` (stereo not given), the TGI is greater than 100 µM.
Turning to `CN1CN(c2ccccc2)C2(CCN(CCCC3(c4cccs4)OCCO3)CC2)C1=O`, the TGI is greater than 100 µM.
Regarding `COc1cc([C@@H]2c3cc4c(cc3C[C@H]3COC(=O)[C@@H]32)OCO4)cc(OC)c1OC`, the GI50 was 0.00294 µM and 0.00647 µM.
`Cc1nc2ccc([N+](=O)[O-])cc2c(=O)n1C(=S)Nc1cccc(Cl)c1` yielded a TGI of 39.6 µM.
On to `COc1cccc(-c2nc(-c3cnccn3)n(Cc3ccccc3)n2)c1`, for which the TGI is greater than 100 µM.
In turn, `CC(=O)Nc1ccc(Cl)c(Cl)c1` displayed a TGI greater than 100 µM.
On to `O=C(/C=C/c1cccs1)c1ccc(Cl)cc1`, for which the TGI was greater than 100 µM.
On the same count and under the same terms, the value for `N#Cc1c(OCCF)c2ccccc2n2c1nc1ccccc12` was greater than 100 µM.
